Assay results: paper PMC7868085, “A potent and selective small molecule inhibitor of myoferlin attenuates colorectal cancer progression” (Clinical and Translational Medicine, 2021)
pKd: −log10 of the molar value.

Molecular target: T1, Myoferlin (MYOF) (Homo sapiens, UniProt Q9NZM1)
T1 construct: C2D domain of MYOF (MYOF-C2D)
T1 sequence (Q9NZM1 1123-1251 limits assumed): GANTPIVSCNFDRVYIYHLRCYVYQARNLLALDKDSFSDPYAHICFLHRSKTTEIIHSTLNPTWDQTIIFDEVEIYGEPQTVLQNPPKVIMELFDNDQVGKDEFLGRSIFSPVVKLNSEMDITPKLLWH
Test: SPR (Biacore T200, immobilized MYOF-C2D); confirmed by BLI (KD =[…])
Format: binding

CCc1nc(-c2ccc(OC)cc2)n(-c2cccc(C(=O)NCCCCc3ccccc3)c2)n1 [YQ456, 3‐(3‐ethyl‐5‐(4‐methoxyphenyl)‐1H‐1,2,4‐triazol‐1‐yl)‐N‐(4‐phenylbutyl)benzamide]
pKd: 7.43
